# Measurements as given in patent publication US8889370B2, “Method of determining inhibitors of coagulation” (Siemens Healthcare Diagnostics Products GmbH, priority 2010, dated 2014).
# Like-named read-outs stand apart in the source and are kept apart here.
# Target: T1, bovine thrombin (Bos taurus, UniProt P00735)
# T1 construct: a lyophilized thrombin reagent consisting of bovine thrombin; purchased Siemens Healthcare Diagnostics (hirudin activity assay, thrombin reagent)
# Assay: Determination of the thrombin binding constant (Ki) of peptide aldehyde ligands, chromogenic assay with hirudin activity assay reagents, Dixon plot
# Assay type: biochemical
# Description: The kinetic data of the peptide aldehyde ligands were determined in chromogenic assay formats by measuring the rate of hydrolysis of chromogenic peptide substrates which compete with the peptide aldehyde ligands for binding to the active site of the particular enzyme, at various substrate concentrations and peptide aldehyde-ligand concentrations. The binding constant (Ki) was determined by a known method (Dixon, M., 1953, Biochem J, 55, 170-171).
# The thrombin binding constant was determined using the reagents of the hirudin activity assay from Siemens Healthcare Diagnostics. The hirudin activity assay comprises a lyophilized thrombin reagent consisting of bovine thrombin, a heparin inhibitor and aprotinin, a lyophilized chromogenic substrate reagent with a concentration of 4 mmol/l tos-Gly-Pro-Arg-ANBA-IPA (tosylglycyl-L-propyl-arginyl-5-amino-2-nitrobenzoyliso-propylamide) after reconstitution. The thrombin reagent was reconstituted in buffer solution (trishydroxymethylamino-methane, NaCl, pH 8.2). Dilutions of the substrate reagent were prepared with deionized water. The peptide aldehyde ligands prepared according to example 1 were dissolved in water and used as sample. The B-r-G-R—H ligand was used in a concentration range from 26.1 to 0.815 μM. The B-f-P—R—H ligand was used in a concentration range from 26.1 to 0 μM. The assays were carried out automatically in a BCS® XP coagulation analyzer (Siemens Healthcare Diagnostics, Marburg, Germany).
# A reaction mix was mixed together as follows:
# 30 μl of sample (peptide aldehyde ligand B-r-G-R—H or B-f-P—R—H),
# 150 μl of thrombin reagent,
# 50 μl of chromogenic substrate reagent (tos-Gly-Pro-Arg-ABNA-IPA).
# The reaction rate in mE/min was determined on the basis of the increase in optical density of the reaction mix at a wavelength of 405 nm. For this, the optical density of the reaction mixes was determined in time intervals of from 15 to 40 seconds for the B-f-P—R—H peptide aldehyde ligand or 5-16 seconds for the B-r-G-R—H peptide aldehyde ligand.
# Reversibly and irreversibly binding ligands can be distinguished by their reaction kinetics. Plotting 1/v, where v is the reaction rate, as a function of the ligand concentration (i) at a constant concentration (S) of a cleavable substrate produces a line. When using two or more different substrate concentrations (S1, S2 . . . SN), said lines intersect at a single point. The x axis value of this point corresponds to −Ki, with Ki corresponding to the binding constant, see, for example, Klebe, G., Wirkstoffdesign, 2nd edition, Spektrum Akademischer Verlag, Heidelberg, Germany, 2009, pages 52-62 and Dixon, M., 1953, Biochem J, 55, 170-171. With an irreversible inhibition, the curves meet at a single point on the x axis, which again corresponds to −Ki.
smiles,measurement,setting,value
"N=C(N)NCCC[C@@H](C=O)NC(=O)CNC(=O)[C@@H](CCCNC(=N)N)NC(=O)CCC(=O)NCCCOCCOCCOCCCNC(=O)CCCC[C@@H]1SC[C@@H]2NC(=O)N[C@@H]21 [B-r-G-R-H, biotinyl-Ttds-D-Arg-Gly-Arg-H]",1/Reaction rate,"CB-r-G-R-H 0.81522 μM, Csubstrate = 0.5 mM",0.516 min/E
same,1/Reaction rate,"CB-r-G-R-H 0.81522 μM, Csubstrate = 2 mM",0.3884 min/E
same,1/Reaction rate,"CB-r-G-R-H 0.81522 μM, Csubstrate = 4 mM",0.3756 min/E
same,1/Reaction rate,"CB-r-G-R-H 1.30435 μM, Csubstrate = 0.5 mM",0.5211 min/E
same,1/Reaction rate,"CB-r-G-R-H 1.30435 μM, Csubstrate = 2 mM",0.3902 min/E
same,1/Reaction rate,"CB-r-G-R-H 1.30435 μM, Csubstrate = 4 mM",0.3758 min/E
same,1/Reaction rate,"CB-r-G-R-H 1.63043 μM, Csubstrate = 0.5 mM",0.5224 min/E
same,1/Reaction rate,"CB-r-G-R-H 1.63043 μM, Csubstrate = 2 mM",0.3894 min/E
same,1/Reaction rate,"CB-r-G-R-H 1.63043 μM, Csubstrate = 4 mM",0.3748 min/E
same,1/Reaction rate,"CB-r-G-R-H 2.60870 μM, Csubstrate = 0.5 mM",0.5283 min/E
same,1/Reaction rate,"CB-r-G-R-H 2.60870 μM, Csubstrate = 2 mM",0.3876 min/E
same,1/Reaction rate,"CB-r-G-R-H 2.60870 μM, Csubstrate = 4 mM",0.373 min/E
same,1/Reaction rate,"CB-r-G-R-H 3.26087 μM, Csubstrate = 0.5 mM",0.5385 min/E
same,1/Reaction rate,"CB-r-G-R-H 3.26087 μM, Csubstrate = 2 mM",0.3968 min/E
same,1/Reaction rate,"CB-r-G-R-H 3.26087 μM, Csubstrate = 4 mM",0.3807 min/E
same,1/Reaction rate,"CB-r-G-R-H 5.21739 μM, Csubstrate = 0.5 mM",0.5408 min/E
same,1/Reaction rate,"CB-r-G-R-H 5.21739 μM, Csubstrate = 2 mM",0.3946 min/E
same,1/Reaction rate,"CB-r-G-R-H 5.21739 μM, Csubstrate = 4 mM",0.3761 min/E
same,1/Reaction rate,"CB-r-G-R-H 6.52174 μM, Csubstrate = 0.5 mM",0.5637 min/E
same,1/Reaction rate,"CB-r-G-R-H 6.52174 μM, Csubstrate = 2 mM",0.4008 min/E
same,1/Reaction rate,"CB-r-G-R-H 6.52174 μM, Csubstrate = 4 mM",0.3841 min/E
same,1/Reaction rate,"CB-r-G-R-H 9.78261 μM, Csubstrate = 0.5 mM",0.5802 min/E
same,1/Reaction rate,"CB-r-G-R-H 9.78261 μM, Csubstrate = 2 mM",0.4106 min/E
same,1/Reaction rate,"CB-r-G-R-H 9.78261 μM, Csubstrate = 4 mM",0.3805 min/E
same,1/Reaction rate,"CB-r-G-R-H 13.04348 μM, Csubstrate = 0.5 mM",0.609 min/E
same,1/Reaction rate,"CB-r-G-R-H 13.04348 μM, Csubstrate = 2 mM",0.4032 min/E
same,1/Reaction rate,"CB-r-G-R-H 13.04348 μM, Csubstrate = 4 mM",0.3885 min/E
same,1/Reaction rate,"CB-r-G-R-H 16.30435 μM, Csubstrate = 0.5 mM",0.6264 min/E
same,1/Reaction rate,"CB-r-G-R-H 16.30435 μM, Csubstrate = 2 mM",0.414 min/E
same,1/Reaction rate,"CB-r-G-R-H 16.30435 μM, Csubstrate = 4 mM",0.3865 min/E
same,1/Reaction rate,"CB-r-G-R-H 26.08696 μM, Csubstrate = 0.5 mM",0.6903 min/E
same,1/Reaction rate,"CB-r-G-R-H 26.08696 μM, Csubstrate = 2 mM",0.4285 min/E
same,1/Reaction rate,"CB-r-G-R-H 26.08696 μM, Csubstrate = 4 mM",0.395 min/E
same,Intersect of regression curve 1/reaction rate vs ligand concentration,Csubstrate 0.5 mM,0.5122 min/E
same,Slope of regression curve 1/reaction rate vs ligand concentration,Csubstrate 0.5 mM,0.006964 min/E μM
same,Intersect of regression curve 1/reaction rate vs ligand concentration,Csubstrate 2 mM,0.3880 min/E
same,Slope of regression curve 1/reaction rate vs ligand concentration,Csubstrate 2 mM,0.001572 min/E μM
same,Intersect of regression curve 1/reaction rate vs ligand concentration,Csubstrate 4 mM,0.3746 min/E
same,Slope of regression curve 1/reaction rate vs ligand concentration,Csubstrate 4 mM,0.000805 min/E μM
same,Ki,"average of three Ki values, read-out: KiM average thrombin binding constant",20.9 µM
same,Ki,"intersection of regression curves Csubstrate 2 and 0.5 mM, read-out: Ki2&3 thrombin binding constant",23 µM
same,Ki,"intersection of regression curves Csubstrate 4 and 0.5 mM, read-out: Ki1&3 thrombin binding constant",22.3 µM
same,Ki,"intersection of regression curves Csubstrate 4 and 2 mM, read-out: Ki1&2 thrombin binding constant",17.4 µM
same,binding of the peptide aldehyde with thrombin (reversible or irreversible),intersections of regression curves not on the x axis,reversible
